Data taken from publication PMC4956214, “Identification of Host Insulin Binding Sites on Schistosoma japonicum Insulin Receptors” (PLoS ONE, 2016).

The sequences below were run against T1, human insulin (Homo sapiens, UniProt P01308) (assay: Octet RED insulin binding assay (biotinylated human insulin on streptavidin biosensors)). Conditions: Octet RED binding assays.
T1 construct: human insulin was biotinylated using a NHS-PEO4-biotin kit; biotin (chemical label, NHS-PEO4-biotin)
T1 sequence (P01308 25-54 limits assumed): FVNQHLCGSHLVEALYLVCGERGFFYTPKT
T1 sequence (P01308 90-110 limits assumed): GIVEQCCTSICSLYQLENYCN
With “ILPVIVDEVVSLKSDTVG [Analogue 18, peptide analogue from SjIR-2 FnIII-2]” the “Specific binding to human insulin” value was “no specific binding”.
With “AYLIWIRILEDNPSEY [Analogue 16, peptide analogue from SjIR-2 FnIII-1]” the “Specific binding to human insulin” value was “no specific binding”.
With “HEPKCHKVIEPITN [Analogue 8, peptide analogue from SjIR-1 FnIII-1]” the “Specific binding to human insulin” value was “no specific binding”.
With “GSLIIENGNCSGDLSTLLPNLTVIRNQVI [Analogue 2, peptide analogue from SjIR-1 L1 domain]” the “Specific binding to human insulin” value was “no specific binding”.
With “IPRDASLPFLKEVTGSLLVYDTEGPEDL [Analogue 14, peptide analogue from SjIR-2 L1]” the “Specific binding to human insulin” value was “no specific binding”.
“IGIDESESIIETIC [Analogue 7, peptide analogue from SjIR-1 FnIII-1]” was tested, and the “Specific binding to human insulin” value was “no specific binding”.
